Results taken from BindingDB's records for doi:10.1007/pl00005056 (Smithkline Beecham Pharmaceuticals, 1997).
Several values for one entry are separate records, joined by “and”; a condition that tells them apart may be missing. Equal entries are not always repeated.

What was measured:
[1] = target: 5-hydroxytryptamine receptor 2B (Homo sapiens, UniProt P41595)
[2] = target: 5-hydroxytryptamine receptor 1D (Homo sapiens, UniProt P28221)
[3] = target: T1, 5-hydroxytryptamine receptor 2C (Homo sapiens, UniProt P28335)
T1 sequence (P28335 whole entry): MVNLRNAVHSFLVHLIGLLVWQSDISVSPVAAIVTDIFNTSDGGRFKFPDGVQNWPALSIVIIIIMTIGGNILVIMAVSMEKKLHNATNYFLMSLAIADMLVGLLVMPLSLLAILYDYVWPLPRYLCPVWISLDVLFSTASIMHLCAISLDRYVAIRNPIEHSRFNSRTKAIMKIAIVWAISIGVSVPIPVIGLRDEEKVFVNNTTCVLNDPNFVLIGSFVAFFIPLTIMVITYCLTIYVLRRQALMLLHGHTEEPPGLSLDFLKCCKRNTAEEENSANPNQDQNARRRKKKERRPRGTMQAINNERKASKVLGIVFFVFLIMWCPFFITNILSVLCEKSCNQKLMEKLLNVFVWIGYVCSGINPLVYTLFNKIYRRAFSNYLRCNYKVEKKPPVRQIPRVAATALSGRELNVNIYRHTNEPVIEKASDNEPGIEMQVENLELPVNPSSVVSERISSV

[4] = target: T2, 5-hydroxytryptamine receptor 1F (Homo sapiens, UniProt P30939)
T2 sequence (P30939 whole entry): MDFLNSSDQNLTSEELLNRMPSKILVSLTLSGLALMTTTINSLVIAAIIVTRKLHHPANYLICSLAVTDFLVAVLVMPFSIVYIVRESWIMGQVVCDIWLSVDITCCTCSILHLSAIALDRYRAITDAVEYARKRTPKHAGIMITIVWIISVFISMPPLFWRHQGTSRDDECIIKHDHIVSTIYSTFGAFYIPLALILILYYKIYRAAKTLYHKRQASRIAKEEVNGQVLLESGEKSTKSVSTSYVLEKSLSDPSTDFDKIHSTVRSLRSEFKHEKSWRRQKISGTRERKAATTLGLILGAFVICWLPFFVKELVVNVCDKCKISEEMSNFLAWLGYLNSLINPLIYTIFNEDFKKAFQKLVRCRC

[5] = target: 5-hydroxytryptamine receptor 7 (Homo sapiens, UniProt P34969)
[6] = target: 5-hydroxytryptamine receptor 6 (Homo sapiens, UniProt P50406)
[7] = target: 5-hydroxytryptamine receptor 1E (Homo sapiens, UniProt P28566)
[8] = target: 5-hydroxytryptamine receptor 1B (Homo sapiens, UniProt P28222)
[9] = target: 5-hydroxytryptamine receptor 2A (Homo sapiens, UniProt P28223)
[10] = target: T3, 5-hydroxytryptamine receptor 1A (Homo sapiens, UniProt P08908)
T3 sequence (P08908 whole entry): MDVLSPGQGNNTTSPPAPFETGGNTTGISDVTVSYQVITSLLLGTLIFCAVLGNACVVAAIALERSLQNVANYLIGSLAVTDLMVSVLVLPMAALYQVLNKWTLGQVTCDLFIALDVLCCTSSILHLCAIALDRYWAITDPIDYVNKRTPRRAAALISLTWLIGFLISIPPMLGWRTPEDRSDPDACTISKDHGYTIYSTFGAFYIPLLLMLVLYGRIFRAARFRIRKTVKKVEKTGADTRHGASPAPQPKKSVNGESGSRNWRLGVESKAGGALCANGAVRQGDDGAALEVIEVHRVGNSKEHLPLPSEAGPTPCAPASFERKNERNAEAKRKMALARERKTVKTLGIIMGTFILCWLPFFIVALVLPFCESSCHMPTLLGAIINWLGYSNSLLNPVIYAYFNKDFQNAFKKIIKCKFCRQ

Chain of 5-hydroxytryptamine receptor 1D (P28221 whole entry): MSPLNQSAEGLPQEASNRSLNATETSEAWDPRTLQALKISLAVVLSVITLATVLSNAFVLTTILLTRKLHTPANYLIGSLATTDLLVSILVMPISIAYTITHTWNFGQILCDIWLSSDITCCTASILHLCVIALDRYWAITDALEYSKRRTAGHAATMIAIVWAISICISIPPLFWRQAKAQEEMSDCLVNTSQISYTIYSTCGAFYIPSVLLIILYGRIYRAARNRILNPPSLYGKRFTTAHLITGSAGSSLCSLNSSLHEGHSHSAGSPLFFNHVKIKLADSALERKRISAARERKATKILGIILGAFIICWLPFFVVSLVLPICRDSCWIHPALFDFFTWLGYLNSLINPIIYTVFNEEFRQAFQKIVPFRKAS
Chain of 5-hydroxytryptamine receptor 2A (P28223 whole entry): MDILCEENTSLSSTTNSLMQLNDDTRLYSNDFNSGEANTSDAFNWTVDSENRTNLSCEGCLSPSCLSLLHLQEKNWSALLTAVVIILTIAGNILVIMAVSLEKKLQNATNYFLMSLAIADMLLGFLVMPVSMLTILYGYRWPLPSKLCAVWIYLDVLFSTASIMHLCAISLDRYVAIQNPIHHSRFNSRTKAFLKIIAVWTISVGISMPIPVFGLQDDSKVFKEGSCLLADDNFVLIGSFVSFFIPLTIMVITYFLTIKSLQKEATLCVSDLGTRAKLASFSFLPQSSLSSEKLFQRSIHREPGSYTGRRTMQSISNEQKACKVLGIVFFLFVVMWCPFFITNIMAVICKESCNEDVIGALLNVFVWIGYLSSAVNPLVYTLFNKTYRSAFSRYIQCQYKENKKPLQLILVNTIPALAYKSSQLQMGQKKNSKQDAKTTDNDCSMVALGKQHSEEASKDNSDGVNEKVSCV
Chain of 5-hydroxytryptamine receptor 1B (P28222 whole entry): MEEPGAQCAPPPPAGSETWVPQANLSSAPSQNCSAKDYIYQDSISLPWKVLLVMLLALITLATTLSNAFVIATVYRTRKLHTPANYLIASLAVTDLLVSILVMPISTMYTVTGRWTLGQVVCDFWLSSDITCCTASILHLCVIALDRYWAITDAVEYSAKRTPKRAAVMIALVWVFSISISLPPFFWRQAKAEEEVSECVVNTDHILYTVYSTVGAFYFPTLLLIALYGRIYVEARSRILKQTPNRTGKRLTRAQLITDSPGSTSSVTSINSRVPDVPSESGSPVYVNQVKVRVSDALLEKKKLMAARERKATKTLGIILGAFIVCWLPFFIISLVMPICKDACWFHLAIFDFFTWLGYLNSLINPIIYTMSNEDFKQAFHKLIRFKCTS
Chain of 5-hydroxytryptamine receptor 7 (P34969 whole entry): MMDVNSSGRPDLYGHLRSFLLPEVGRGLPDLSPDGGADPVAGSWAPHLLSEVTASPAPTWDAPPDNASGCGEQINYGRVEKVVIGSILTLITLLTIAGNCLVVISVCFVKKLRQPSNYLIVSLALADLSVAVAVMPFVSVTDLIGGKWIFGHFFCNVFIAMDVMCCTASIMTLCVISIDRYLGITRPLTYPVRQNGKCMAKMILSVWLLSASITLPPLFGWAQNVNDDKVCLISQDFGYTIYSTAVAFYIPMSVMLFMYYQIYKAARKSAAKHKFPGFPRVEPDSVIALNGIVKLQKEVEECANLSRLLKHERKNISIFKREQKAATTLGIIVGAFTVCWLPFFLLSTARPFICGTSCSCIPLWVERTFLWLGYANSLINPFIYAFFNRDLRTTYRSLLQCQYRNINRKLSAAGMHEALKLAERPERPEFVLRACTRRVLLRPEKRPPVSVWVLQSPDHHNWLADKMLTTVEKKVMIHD
Chain of 5-hydroxytryptamine receptor 6 (P50406 whole entry): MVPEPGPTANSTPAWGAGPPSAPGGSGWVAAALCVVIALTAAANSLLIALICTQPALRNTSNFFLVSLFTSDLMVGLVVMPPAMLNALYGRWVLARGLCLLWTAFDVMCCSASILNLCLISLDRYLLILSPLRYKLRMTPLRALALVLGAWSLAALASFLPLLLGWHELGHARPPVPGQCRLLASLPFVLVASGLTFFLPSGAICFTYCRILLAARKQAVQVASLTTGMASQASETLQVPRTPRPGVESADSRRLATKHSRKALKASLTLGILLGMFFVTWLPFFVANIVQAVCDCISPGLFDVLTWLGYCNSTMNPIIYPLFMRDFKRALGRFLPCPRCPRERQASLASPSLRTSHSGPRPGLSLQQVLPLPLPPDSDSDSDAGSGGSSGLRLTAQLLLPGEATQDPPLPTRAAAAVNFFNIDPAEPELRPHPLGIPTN
Chain of 5-hydroxytryptamine receptor 2B (P41595 whole entry): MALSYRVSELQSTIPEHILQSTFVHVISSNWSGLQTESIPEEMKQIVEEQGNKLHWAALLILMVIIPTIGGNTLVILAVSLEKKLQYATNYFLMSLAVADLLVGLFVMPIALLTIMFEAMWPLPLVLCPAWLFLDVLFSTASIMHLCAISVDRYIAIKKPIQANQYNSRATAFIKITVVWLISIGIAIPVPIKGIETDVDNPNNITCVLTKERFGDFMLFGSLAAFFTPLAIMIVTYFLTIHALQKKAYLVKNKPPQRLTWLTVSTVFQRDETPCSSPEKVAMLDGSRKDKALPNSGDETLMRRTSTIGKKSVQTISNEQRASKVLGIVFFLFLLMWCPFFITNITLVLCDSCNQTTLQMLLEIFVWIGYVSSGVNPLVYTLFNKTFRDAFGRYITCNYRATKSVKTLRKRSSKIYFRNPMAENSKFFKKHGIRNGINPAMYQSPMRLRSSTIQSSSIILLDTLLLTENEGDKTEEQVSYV
Chain of 5-hydroxytryptamine receptor 1E (P28566 whole entry): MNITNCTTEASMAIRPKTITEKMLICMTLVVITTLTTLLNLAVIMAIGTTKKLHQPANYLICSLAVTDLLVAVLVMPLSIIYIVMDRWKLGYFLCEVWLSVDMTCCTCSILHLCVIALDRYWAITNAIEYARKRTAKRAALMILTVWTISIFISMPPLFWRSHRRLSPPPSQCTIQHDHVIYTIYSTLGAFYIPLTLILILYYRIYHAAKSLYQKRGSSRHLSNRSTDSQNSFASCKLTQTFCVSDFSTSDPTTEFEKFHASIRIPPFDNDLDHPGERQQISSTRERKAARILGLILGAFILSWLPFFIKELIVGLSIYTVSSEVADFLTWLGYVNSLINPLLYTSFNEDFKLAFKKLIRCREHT

Structure (SMILES) | Ki [1] [nM] | Ki [2] | Ki [3] [nM] | Ki [4] [nM] | Ki [5] [nM] | Ki [6] [nM] | Ki [7] [nM] | Ki [8] | Ki [9] [nM] | Ki [10] [nM]
OC(CN1CCN(c2cccc(Cl)c2)CC1)C(c1ccccc1)c1ccccc1 (stereo not drawn) | 39.8 | 12.6 nM and 7.94 nM | 631 | 1000 | 501 | 1260 | 6310 | 794 nM and 1260 nM | 251 | –
COc1ccc(NC(=O)c2ccc(-c3ccc(-c4noc(C)n4)cc3C)cc2)cc1OCCN(C)C [CAS_3292447] | 1580 | 25.1 nM and 12.6 nM | 158 | 1000 | > 10000 | 3160 | 1000 | 1 nM and 7.94 nM | 50.1 | 501
COc1ccc(NC(=O)c2ccc(-c3ccc(-c4noc(C)n4)cc3C)cc2)cc1N1CCN(C)CC1 [SMR001230745] | 631 | – | 100 | 398 | 631 | 1580 | 3980 | 1 nM and 7.94 nM | 15.8 | 63.1
